Reference: US20230293526A1, “METHOD FOR TREATING CANCER WITH A REVERSE TRANSCRIPTASE INHIBITOR” (PrimeFour Therapeutics, Inc., priority 2020, published 2023)
pIC50: −log10 of the molar value.

Tested on: cancer cell lines
Experiment: Cancer cell proliferation activity of representative nucleosides, CellTiterGlo 72 h (Example 7, Tables 8 and 9)
Format: cell-based
Details: 72 h
Protocol: Dose response relationships on cell proliferation was assessed for representative nucleosides on cancer cell lines. Briefly, compound treatment of cells started one day after seeding with a final DMSO concentration of 0.1%, and was performed by nanodrop-dispensing using a Tecan Dispenser. 0.1% DMSO (solvent) and Staurosporine (10 μM) served as high control (100% viability) and low control (0% viability), respectively. Cells were cultured in the appropriate media. For the assays, cells were seeded in white cell culture-treated flat and clear bottom multiwell plates and incubated at 37° C. overnight before compound was added. After incubation for 72 h at 37° C. at 5% or 10% CO2 dependent on the medium, cell plates were equilibrated to room temperature for one hour, CellTiterGlo reagent (Promega) was added and luminescence was measured approximately an hour later using a luminometer.
Raw data were converted into percent cell viability relative to the high and low control, which were set to 100% and 0%, respectively.

pIC50 (72 h, 5637, bladder): 6.64
pIC50 (CLS439, bladder): 5.52
pIC50 (HS729, muscle): 6.26
pIC50 (J82, bladder): 6.08
pIC50 (JAR, placenta): < 4.30
pIC50 (MT3, breast): 6.92
pIC50 (PC3, prostate): 6.70
pIC50 (RD, muscle): 5.85
pIC50 (T24, bladder): 6.74
pIC50 (Homo sapiens, 22Rv1, 72 h, 22RV1, prostate): 5.98
pIC50 (Homo sapiens, 786-0, 72 h, 786O, kidney): 5.79
pIC50 (Homo sapiens, A204, 72 h, A204, muscle): 7.52
pIC50 (Homo sapiens, A549, 72 h, A549, lung): 6.06
pIC50 (Homo sapiens, A673, 72 h, A673, bone): 6.70
pIC50 (Homo sapiens, A2780, 72 h, A2780, ovary): 6.19
pIC50 (Homo sapiens, A-375, 72 h, A375, skin): 6.24
pIC50 (Homo sapiens, A-431, 72 h, A431, skin): 6.52
pIC50 (Homo sapiens, ACHN, kidney): 6.15
pIC50 (Homo sapiens, ASPC1, 72 h, ASPC1, pancreas): 6.55
pIC50 (Homo sapiens, BT-20, 72 h, BT20, breast): 5.83
pIC50 (Homo sapiens, BXPC-3, 72 h, BXPC3, pancreas): 6.46
pIC50 (Homo sapiens, C-33-A, C33A, endometrial): 6.62
pIC50 (Homo sapiens, CAKI-1, 72 h, CAKI1, kidney): 6.96
pIC50 (Homo sapiens, COLO 205, 72 h, COLO205, colon): 6.80
pIC50 (Homo sapiens, COLO-678, 72 h, COLO678, colon): 4.97
pIC50 (Homo sapiens, Ca-Ski, CASKI, endometrial): 5.28
pIC50 (Homo sapiens, Caco-2, 72 h, CACO2, colon): < 4.30
pIC50 (Homo sapiens, Calu-6, 72 h, CALU6, lung): 5.60
pIC50 (Homo sapiens, DLD-1, 72 h, DLD1, colon): 6.11
pIC50 (Homo sapiens, DU-145, 72 h, DU145, prostate): 6.48
pIC50 (Homo sapiens, EFO-21, 72 h, EFO21, ovary): 5.92
pIC50 (Homo sapiens, EJ-28, 72 h, EJ28, bladder): 5.63
pIC50 (Homo sapiens, Granta-519, 72 h, GRANTA-519, hematological): 7.10
pIC50 (Homo sapiens, HCT-15, 72 h, HCT15, colon): 6.09
pIC50 (Homo sapiens, HCT-116, 72 h, HCT116, colon): 6.26
pIC50 (Homo sapiens, HEK293, 72 h, HEK293, kidney): 4.90
pIC50 (Homo sapiens, HL-60, 72 h, HL-60, hematological): 6.27
pIC50 (Homo sapiens, HT-29, 72 h, HT29, colon): 5.97
pIC50 (Homo sapiens, HT-1080, 72 h, HT1080, connective tissue): 6.46
pIC50 (Homo sapiens, HeLa, endometrial): 6.12
pIC50 (Homo sapiens, HepG2, 72 h, HEPG2, liver): 5.57
pIC50 (Homo sapiens, Hs-578T, HS578T, breast): 5.75
pIC50 (Homo sapiens, IGROV-1, 72 h, IGROV1, ovary): 5.86
pIC50 (Homo sapiens, IMR-90, 72 h, IMR90, lung): 5.56
pIC50 (Homo sapiens, JEG-3, 72 h, JEG3, placenta): 5.72
pIC50 (Homo sapiens, JIMT-1, 72 h, JIMT1, breast): 6.68
pIC50 (Homo sapiens, K562, 72 h, K-562, hematological): 5.79
pIC50 (Homo sapiens, Kasumi 1, 72 h, KASUMI-1, hematological): 6.66
pIC50 (Homo sapiens, L-363, 72 h, L-363, hematological): < 4.30
pIC50 (Homo sapiens, LoVo, colon): 6.36
pIC50 (Homo sapiens, MCF7, 72 h, MCF7, breast): < 4.30
pIC50 (Homo sapiens, MDA-MB-231, 72 h, MDAMB231, breast): 6.89
pIC50 (Homo sapiens, MDA-MB-435, 72 h, MDAMB435, skin): 5.67
pIC50 (Homo sapiens, MDA-MB-436, 72 h, MDAMB436, breast): 6.44
pIC50 (Homo sapiens, MDA-MB-468, 72 h, MDAMB468, breast): 5.92
pIC50 (Homo sapiens, MG-63, 72 h, MG63, bone): 6.24
pIC50 (Homo sapiens, MHH-ES-1, 72 h, MHHES1, bone): 6.68
pIC50 (Homo sapiens, MIA PaCa-2, 72 h, MIAPACA2, pancreas): 5.71
pIC50 (Homo sapiens, MINO, hematological): 7.15
pIC50 (Homo sapiens, MV4-11, 72 h, MV4-11, hematological): 6.22
pIC50 (Homo sapiens, NCI-H23, 72 h, NCI-H23, lung): 5.87
pIC50 (Homo sapiens, NCI-H82, 72 h, NCIH82, lung): < 4.30
pIC50 (Homo sapiens, NCI-H292, 72 h, NCIH292, lung): 6.10
pIC50 (Homo sapiens, NCI-H460, 72 h, NCIH460, ung): 5.69
pIC50 (Homo sapiens, OVCAR-3, 72 h, OVCAR3, ovary): 6.24
pIC50 (Homo sapiens, OVCAR-4, 72 h, OVCAR4, ovary): 5.38
pIC50 (Homo sapiens, PANC-1, 72 h, PANC1, pancreas): 5.46
pIC50 (Homo sapiens, PLC-PRF-5, 72 h, PLCPRF5, liver): < 4.30
pIC50 (Homo sapiens, Panc1005, 72 h, PANC1005, pancreas): 6.19
pIC50 (Homo sapiens, Ramos, hematological): 6.77
pIC50 (Homo sapiens, SAOS-2, 72 h, SAOS2, bone): 6.96
pIC50 (Homo sapiens, SF-268, 72 h, SF268, brain): 6.46
pIC50 (Homo sapiens, SF-295, 72 h, SF295, brain): 5.95
pIC50 (Homo sapiens, SK-BR-3, 72 h, SKBR3, breast): 6.19
pIC50 (Homo sapiens, SK-HEP1, 72 h, SKHEP1, liver): 6.62
pIC50 (Homo sapiens, SK-LMS-1, 72 h, SKLMS1, uterus): 5.43
pIC50 (Homo sapiens, SK-MEL-5, 72 h, SKMEL5, skin): < 4.30
pIC50 (Homo sapiens, SK-MEL-28, 72 h, SKMEL28, skin): 5.58
pIC50 (Homo sapiens, SK-N-AS, SKNAS, brain): 5.36
pIC50 (Homo sapiens, SK-N-SH, SKNSH, brain): < 4.30
pIC50 (Homo sapiens, SK-OV-3, 72 h, SKOV3, ovary): 6.05
pIC50 (Homo sapiens, SNB-75, 72 h, SNB75, brain): 6.08
pIC50 (Homo sapiens, SU-DHL10, 72 h, SU-DHL-10, hematological): 6.30
pIC50 (Homo sapiens, SU-DHL-6, 72 h, SU-DHL-6, hematological): 6.10
pIC50 (Homo sapiens, SW-620, 72 h, SW620, colon): 5.58
pIC50 (Homo sapiens, TE-671, 72 h, TE671, muscle): 5.76
pIC50 (Homo sapiens, THP-1, 72 h, THP-1, hematological): 6.01
pIC50 (Homo sapiens, U2OS, bone): 5.27
pIC50 (Homo sapiens, U-87 MG, U87MG, brain): 6.30
pIC50 (Homo sapiens, UMUC3, 72 h, UMUC3, bladder): 5.94
pIC50 (Homo sapiens, UO-31, 72 h, UO31, kidney): 6.18
pIC50 (Homo sapiens, WSU-NHL, hematological): 6.66
pIC50 (NCI-H358M, NCIH358M, lung): 7.40
pIC50 (PBMC, hematological): 6.46
pIC50 (RD-ES, RDES, bone): 5.79
Structure (SMILES): N#C[C@]1(CO)O[C@@H](n2ccc(N)nc2=O)C[C@@H]1O [compound 29]
